Reference: BigSolDB 2.1

O=C(O)c1cccc(O)c1O
solubility (mole fraction)
Conditions	278.15 K	283.15 K	288.15 K	293.15 K	298.15 K	303.15 K	308.15 K	313.15 K	318.15 K
in acetone	0.0969	0.0987	0.101	0.105	0.108	0.113	0.116	0.121	0.127
in acetonitrile	0.00923	0.0101	0.0108	0.0115	0.013	0.0147	0.0158	0.0174	0.0198
in ethanol	0.0838	0.0855	0.0884	0.0907	0.0944	0.0973	0.101	0.105	0.11
in ethyl acetate	0.0459	0.048	0.0513	0.0547	0.059	0.0613	0.066	0.0719	0.0761
in ethyl formate	0.0232	0.0245	0.0258	0.0277	0.0301	0.0321	0.0351	0.0374	0.0411
in isopentanol	0.0569	0.0605	0.064	0.067	0.0709	0.0744	0.0803	0.0859	0.0904
in isopropanol	0.0697	0.0727	0.0764	0.0824	0.0879	0.0902	0.0976	0.103	0.11
in isopropyl acetate	0.0426	0.045	0.0494	0.0532	0.0568	0.0602	0.0644	0.0696	0.0728
in methyl acetate	0.0466	0.0493	0.0529	0.0571	0.0594	0.0621	0.0665	0.0726	0.0764
in n-butanol	0.0653	0.0683	0.0706	0.0737	0.0766	0.0806	0.0853	0.0903	0.0952
in n-propanol	0.0664	0.07	0.0727	0.0761	0.0788	0.084	0.0873	0.0915	0.0977
in n-propyl acetate	0.0454	0.048	0.0504	0.0534	0.0564	0.0581	0.0615	0.0672	0.0721
